Laboratory results as given in ChEMBL document CHEMBL1201862, “PubChem BioAssay data set” (2004).
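Briefly, cells in 96-well plates were exposed to five compound concentrations for 48 h, and endpoints were estimated by linear interpolation. GI50 marks 50% less growth.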 Activity calls are given as the source filed them. No stated cut-off is given here; in the data, active = GI50 up to about 1.1 µM and inactive = higher.

Key:
Test in all cases: DTP human tumour cell line panel, 48 h
ACHN = system: ACHN
DU-145 = system: DU-145
HCC 2998 = system: HCC 2998
HCT-116 = system: HCT-116
HL-60 = system: HL-60
HT-29 = system: HT-29
M14 = system: M14
MCF7 = system: MCF7
MOLT-4 = system: MOLT-4
NCI-H226 = system: NCI-H226
OVCAR-4 = system: OVCAR-4
RXF 393 = system: RXF 393
SK-MEL-28 = system: SK-MEL-28
SK-MEL-2 = system: SK-MEL-2
SK-MEL-5 = system: SK-MEL-5
SNB-19 = system: SNB-19
SNB-75 = system: SNB-75
SR = system: SR
SW-620 = system: SW-620
SNB-78 = system: SNB-78

Row | SMILES | GI50 (ACHN) | GI50 (DU-145) | GI50 (HCC 2998) | GI50 (HCT-116) | GI50 (HL-60) | GI50 (HT-29) | GI50 (M14) | GI50 (MCF7) | GI50 (MOLT-4) | GI50 (NCI-H226) | GI50 (OVCAR-4) | GI50 (RXF 393) | GI50 (SK-MEL-28) | GI50 (SK-MEL-2) | GI50 (SK-MEL-5) | GI50 (SNB-19) | GI50 (SNB-75) | GI50 (SR) | GI50 (SW-620) | GI50 (SNB-78)
1 | CC(C)[C@H](NC(=O)OCc1ccccc1)C(=O)N[C@H](/C=C/C(=O)OC(C)(C)C)CO | > 100 µM (inactive) | > 100 µM (inactive) | > 100 µM (inactive) | 71.9 µM (inactive) | 57.1 µM (inactive) | > 100 µM (inactive) | > 100 µM (inactive) | > 100 µM (inactive) | > 100 µM (inactive) | > 100 µM (inactive) | > 100 µM (inactive) | > 100 µM (inactive) | > 100 µM (inactive) | > 100 µM (inactive) | > 100 µM (inactive) | > 100 µM (inactive) | 0.12 µM (active) | > 100 µM (inactive) | 92.9 µM (inactive) | –
2 | CC(=O)OCC1OC(n2c(C)c(C(C)=O)c(-c3ccc(Cl)cc3)c(C#N)c2=S)C(OC(C)=O)C(OC(C)=O)C1OC(C)=O (configuration not stated) | > 100 µM (inactive) | > 100 µM (inactive) | > 100 µM (inactive) | > 100 µM (inactive) | > 100 µM (inactive) | > 100 µM (inactive) | > 100 µM (inactive) | > 100 µM (inactive) | > 100 µM (inactive) | > 100 µM (inactive) | > 100 µM (inactive) | > 100 µM (inactive) | > 100 µM (inactive) | > 100 µM (inactive) | > 100 µM (inactive) | > 100 µM (inactive) | > 100 µM (inactive) | > 100 µM (inactive) | > 100 µM (inactive) | –
3 | COc1ccc(C2c3cc4c(cc3OC(O)(CO)C2C(=O)O)OCO4)c(OC)c1OC.COc1ccc(C2c3cc4c(cc3OC3(O)COC(=O)C23)OCO4)c(OC)c1OC (configuration not stated) | > 100 µM (inactive) | – | – | > 100 µM (inactive) | 45 µM (inactive) | > 100 µM (inactive) | > 100 µM (inactive) | – | > 100 µM (inactive) | – | > 100 µM (inactive) | 74 µM (inactive) | > 100 µM (inactive) | > 100 µM (inactive) | > 100 µM (inactive) | > 100 µM (inactive) | 75.2 µM (inactive) | – | > 100 µM (inactive) | 59.2 µM (inactive)
4 | COc1ccc(CC(=O)c2cc(OC)c(OC)cc2C)cc1OC | 29.4 µM (inactive) | – | > 100 µM (inactive) | – | – | > 100 µM (inactive) | > 100 µM (inactive) | – | 44.8 µM (inactive) | – | 29.3 µM (inactive) | – | 81.3 µM (inactive) | > 100 µM (inactive) | 24.9 µM (inactive) | 68.4 µM (inactive) | > 100 µM (inactive) | – | > 100 µM (inactive) | > 100 µM (inactive)
5 | CC(=O)NC1C(OCc2ccccc2)OC(CO)C(O)C1OCC(=O)N[C@@H](C)C(=O)N[C@H](CCC(=O)NCCCNc1c2ccccc2nc2cccc([N+](=O)[O-])c12)C(N)=O (some centres not stated) | 0.0182 µM (active) | 0.0308 µM (active) | 0.0142 µM (active) | < 0.0127 µM (active) | 0.0559 µM (active) | < 0.0149 µM (active) | 0.0341 µM (active) | 0.018 µM (active) | 0.0269 µM (active) | 0.0586 µM (active) | 0.0418 µM (active) | 0.0352 µM (active) | 0.205 µM (active) | 0.0404 µM (active) | 0.0148 µM (active) | 0.16 µM (active) | 0.122 µM (active) | 0.0249 µM (active) | 0.0172 µM (active) | –
6 | CCC(C)NC(=S)N/N=C(\C)c1nc2cccnc2[nH]1 (configuration not stated) | 9.57 µM (inactive) | 16.9 µM (inactive) | 13.4 µM (inactive) | 6.05 µM (inactive) | 4.92 µM (inactive) | 4.49 µM (inactive) | 12.7 µM (inactive) | 2.1 µM (inactive) | 3.6 µM (inactive) | 4.42 µM (inactive) | 4.91 µM (inactive) | 15.6 µM (inactive) | 33.9 µM (inactive) | 5.92 µM (inactive) | 4.72 µM (inactive) | 32.4 µM (inactive) | 48.5 µM (inactive) | 3.85 µM (inactive) | 4.52 µM (inactive) | –
7 | CC(=O)OC12CC(C)C3(O)C4C=C(C)C(=O)[C@@]4(O)CC(CO)=C[C@H]3C1C2(C)C (some centres not stated) | > 10 µM (inactive) | > 10 µM (inactive) | 4.21 µM (inactive) | > 10 µM (inactive) | 0.887 µM (active) | > 10 µM (inactive) | > 10 µM (inactive) | > 10 µM (inactive) | > 1000 µM (inactive) | > 10 µM (inactive) | > 10 µM (inactive) | > 100 µM (inactive) | > 10 µM (inactive) | > 10 µM (inactive) | 5.2 µM (inactive) | > 10 µM (inactive) | > 10 µM (inactive) | > 10 µM (inactive) | 5.73 µM (inactive) | –
8 | CCCCCC(O)C(O)CCC[C@H](O)[C@H]1CC[C@H]([C@H]2CC[C@H]([C@H](O)CCCCCCCCCCCCC3=C[C@H](C)OC3=O)O2)O1 (some centres not stated) | 1.59 µM (inactive) | 9.18 µM (inactive) | 11 µM (inactive) | 1.36 µM (inactive) | 1.57 µM (inactive) | 2.63 µM (inactive) | 3.49 µM (inactive) | 1.9 µM (inactive) | 2.32 µM (inactive) | 2.49 µM (inactive) | 5.11 µM (inactive) | 7.33 µM (inactive) | 2.56 µM (inactive) | 1.76 µM (inactive) | 1.22 µM (inactive) | 3.14 µM (inactive) | 5.43 µM (inactive) | 4.15 µM (inactive) | 3.44 µM (inactive) | –
9 | O=C1/C(=C/c2ccc(Cl)cc2)CNC/C1=C\c1ccc(Cl)cc1 | 2.07 µM (inactive) | – | 2.23 µM (inactive) | 1.65 µM (inactive) | – | – | 1.89 µM (inactive) | – | 2.28 µM (inactive) | – | – | – | 1.82 µM (inactive) | – | 6.73 µM (inactive) | 1.7 µM (inactive) | 2.9 µM (inactive) | – | 0.792 µM (active) | 2.65 µM (inactive)
10 | Cc1ccc2c(=O)c3c(O)c4c(cc3n(C)c2c1)OC(C)(C)C=C4 | > 10 µM (inactive) | > 10 µM (inactive) | > 10 µM (inactive) | > 10 µM (inactive) | > 10 µM (inactive) | > 10 µM (inactive) | > 10 µM (inactive) | > 10 µM (inactive) | > 10 µM (inactive) | > 10 µM (inactive) | > 10 µM (inactive) | > 10 µM (inactive) | > 10 µM (inactive) | > 10 µM (inactive) | > 10 µM (inactive) | > 10 µM (inactive) | > 10 µM (inactive) | > 10 µM (inactive) | > 10 µM (inactive) | –
11 | CCC(C)C(N)C(=O)N/N=C\c1c2c(nc3ccccc13)-c1cc3c(c(=O)n1C2)COC(=O)[C@]3(O)CC (some centres not stated) | < 0.0117 µM (active) | 0.0158 µM (active) | 0.36 µM (active) | 0.0536 µM (active) | 0.0164 µM (active) | 0.69 µM (active) | 0.039 µM (active) | < 0.01 µM (active) | < 0.01 µM (active) | 0.0598 µM (active) | 1.43 µM (inactive) | < 0.0284 µM (active) | 0.259 µM (active) | 1.08 µM (active) | 0.0594 µM (active) | < 0.01 µM (active) | 0.0256 µM (active) | < 0.01 µM (active) | 0.127 µM (active) | –
12 | O=c1[nH]nc(-c2ccccc2)c2[nH]c3c(c12)Cc1ccccc1-3 | 6.18 µM (inactive) | 10.4 µM (inactive) | 6.82 µM (inactive) | 1.82 µM (inactive) | 0.665 µM (active) | 1.4 µM (inactive) | 4.06 µM (inactive) | 0.158 µM (active) | 1.19 µM (inactive) | 3.9 µM (inactive) | 3.79 µM (inactive) | 6.19 µM (inactive) | 6.01 µM (inactive) | 1.43 µM (inactive) | 0.115 µM (active) | 7.06 µM (inactive) | 3.28 µM (inactive) | 0.069 µM (active) | 2.06 µM (inactive) | –
13 | CC(C)c1ccc(/C=C2\N=C(c3ccc([N+](=O)[O-])cc3)OC2=O)cc1 | > 100 µM (inactive) | > 100 µM (inactive) | > 100 µM (inactive) | > 100 µM (inactive) | > 100 µM (inactive) | > 100 µM (inactive) | > 100 µM (inactive) | > 100 µM (inactive) | > 100 µM (inactive) | > 100 µM (inactive) | > 100 µM (inactive) | 14.9 µM (inactive) | > 100 µM (inactive) | > 100 µM (inactive) | > 100 µM (inactive) | > 100 µM (inactive) | > 100 µM (inactive) | > 100 µM (inactive) | > 100 µM (inactive) | –
14 | O=C(O)CCC(NC(=O)c1ccc(Nc2cnc3ccc(C(F)(F)F)cc3n2)cc1)C(=O)O (configuration not stated) | > 100 µM (inactive) | > 100 µM (inactive) | > 100 µM (inactive) | > 100 µM (inactive) | > 100 µM (inactive) | > 100 µM (inactive) | > 100 µM (inactive) | > 100 µM (inactive) | > 100 µM (inactive) | > 100 µM (inactive) | > 100 µM (inactive) | > 100 µM (inactive) | > 100 µM (inactive) | > 100 µM (inactive) | > 100 µM (inactive) | > 100 µM (inactive) | > 100 µM (inactive) | > 100 µM (inactive) | > 100 µM (inactive) | –
15 | O=C(O)C1(Cc2ccc3c(c2)CCC3)Cc2ccccc2C1=O (configuration not stated) | 45.4 µM (inactive) | 75.3 µM (inactive) | 43.5 µM (inactive) | 39 µM (inactive) | 43.5 µM (inactive) | > 100 µM (inactive) | > 100 µM (inactive) | > 100 µM (inactive) | 91.4 µM (inactive) | 91.4 µM (inactive) | 55.6 µM (inactive) | > 100 µM (inactive) | > 100 µM (inactive) | 46 µM (inactive) | 79.4 µM (inactive) | 79.3 µM (inactive) | 38.8 µM (inactive) | 59 µM (inactive) | 75.7 µM (inactive) | –
